# Target: AMPK
# Experiment: AMPK activation, enzyme-linked immunosorbent assay
# Format: biochemical
# Details: EC50 for AMPK activation, ELISA
# Protocol: Compounds were assayed for their ability to activate AMPK using an enzyme-linked immunosorbent assay. Reagents and procedures for measuring AMPK activation are well known and kits for AMPK activation assays are commercially available.
row,Compound,EC50 [µM]
1,"O=C(c1cccc(C(=O)N2CCN(Cc3ccc(F)cc3)CC2)n1)N1CCN(CCc2ccccc2)CC1 [Compound 93, (4-(4-fluorobenzyl)piperazin-1-yl)(6-(4-phenethylpiperazine-1-carbonyl)pyridin-2-yl)methanone]",> 10
2,"O=C(NC1CCN(Cc2ccccc2)CC1)c1ccc(C(=O)N2CCN(c3ccccc3)CC2)cn1 [Compound 97, N-(1-benzylpiperidin-4-yl)-5-(4-phenylpiperazine-1-carbonyl)picolinamide]",1 to 5
3,N#Cc1ccc(CN2CC[C@@H](NC(=O)c3ccc(C(=O)N4CCN(Cc5ccc(F)cc5)CC4)cn3)[C@@H](F)C2)cc1 [Compound 100],< 0.5
4,"N#Cc1ccc(CN2CCC(NC(=O)c3ccc(C(=O)N4CCN(Cc5ccncc5)CC4)cn3)CC2)cc1 [Compound 103, N-(1-(4-cyanobenzyl)piperidin-4-yl)-5-(4-(pyridin-4-ylmethyl)piperazine-1-carbonyl)picolinamide]",< 0.5
5,"O=C(Nc1ccc(-c2ccccc2)cc1)c1ccc(C(=O)NC2CCN(Cc3ccccc3)CC2)nc1 [Compound 105, N2-(1-benzylpiperidin-4-yl)-N5-(biphenyl-4-yl)pyridine-2,5-dicarboxamide]",> 10
6,"O=C(Nc1ccccc1)c1ccc(C(=O)N2CCN(Cc3ccc(F)cc3)CC2)cn1 [Compound 107, 5-(4-(4-fluorobenzyl)piperazine-1-carbonyl)-N-phenylpicolinamide]",5 to 10
7,"N#Cc1ccc(CN2CCC(NC(=O)c3ccc(N4CCN(Cc5ccccc5)CC4)cn3)CC2)cc1 [Compound 110, 5-(4-benzylpiperazin-1-yl)-N-(1-(4-cyanobenzyl)piperidin-4-yl)picolinamide]",1 to 5
8,"CC(C)(c1ccc(C#N)cc1)N1CCC(NC(=O)c2ccc(C(=O)N3CCN(Cc4ccc(F)cc4)CC3)cn2)CC1 [Compound 111, N-(1-(2-(4-cyanophenyl)propan-2-yl)piperidin-4-yl)-5-(4-(4-fluorobenzyl)piperazine-1-carbonyl)picolinamide]",1 to 5
9,"O=C(NC1CCN(Cc2ccccc2)CC1)c1ccc(Nc2cccc(Oc3ccccc3)c2)cn1 [Compound 112, N-(1-benzylpiperidin-4-yl)-5-(3-phenoxyphenylamino) picolinamide]",1 to 5
10,"O=C(NC1CCN(Cc2ccccc2)CC1)c1ccc(Nc2ccc(Oc3ccccc3)cc2)cn1 [Compound 113, N-(1-benzylpiperidin-4-yl)-5-(4-phenoxyphenylamino) picolinamide]",1 to 5
11,"O=C(NC1CCN(Cc2ccccc2)CC1)c1ccc(Nc2cccc(-c3ccccc3)c2)cn1 [Compound 114, N-(1-benzylpiperidin-4-yl)-5-(biphenyl-3-ylamino)picolinamide]",1 to 5
12,"O=C(NCc1ccccc1)c1ccc(C(=O)N2CCN(Cc3ccccc3)CC2)cn1 [Compound 116, N-benzyl-5-(4-benzylpiperazine-1-carbonyl)picolinamide]",1 to 5
13,"COc1ccc(CN2CCC(NC(=O)c3ccc(C(=O)N4CCN(Cc5ccc(F)cc5)CC4)cn3)CC2)cc1 [Compound 117, 5-(4-(4-fluorobenzyl)piperazine-1-carbonyl)-N-(1-(4-methoxybenzyl)piperidin-4-yl)picolinamide]",< 0.5
14,"N#Cc1ccc(CN2CC[C@@H](NC(=O)c3ccc(C(=O)N4CCN(Cc5ccc(F)cc5)CC4)cn3)C2)cc1 [Compound 118, (R)-N-(1-(4-cyanobenzyl)pyrrolidin-3-yl)-5-(4-(4-fluorobenzyl)piperazine-1-carbonyl)picolinamide]",< 0.5
15,"COc1ccc(-c2ccc(Nc3ccc(C(=O)NC4CCN(Cc5ccccc5)CC4)nc3)cc2)cc1 [Compound 120, N-(1-benzylpiperidin-4-yl)-5-(4′-methoxybiphenyl-4-ylamino)picolinamide]",> 10

# Further lines, results first:
row,EC50 [µM],Compound
1,> 10,"O=C(c1ccc(C(=O)N2CCN(CCc3ccccc3)CC2)nc1)N1CCN(c2ccccc2)CC1 [Compound 90, (4-phenethylpiperazin-1-yl)(5-(4-phenylpiperazine-1-carbonyl)pyridin-2-yl)methanone]"
2,> 10,"CC(C)N1CCN(C(=O)c2ccc(C(=O)N3CCN(CCc4ccccc4)CC3)nc2)CC1 [Compound 91, (4-isopropylpiperazin-1-yl)(6-(4-phenethylpiperazine-1-carbonyl)pyridin-3-yl)methanone]"
3,> 10,"O=C(c1ccc(C(=O)N2CCN(CCc3ccccc3)CC2)nc1)N1CCN(CCc2ccccc2)CC1 [Compound 92, pyridine-2,5-diylbis((4-phenethylpiperazin-1-yl)methanone)]"
4,> 10,"O=C(c1cccc(C(=O)N2CCN(c3ccccc3)CC2)n1)N1CCN(Cc2ccc(F)cc2)CC1 [Compound 94, (4-(4-fluorobenzyl)piperazin-1-yl)(6-(4-phenylpiperazine-1-carbonyl)pyridin-2-yl)methanone]"
5,< 0.5,"N#Cc1ccc(CN2CCC(NC(=O)c3ccc(C(=O)N4CCN(CC5CCCCC5)CC4)cn3)CC2)cc1 [Compound 95, N-(1-(4-cyanobenzyl)piperidin-4-yl)-5-(4-(cyclohexylmethyl)piperazine-1-carbonyl)picolinamide]"
6,> 10,"O=C(NC1CCN(Cc2ccccc2)CC1)c1ccc(C(=O)N2CCN(c3ccncc3)CC2)cn1 [Compound 96, N-(1-benzylpiperidin-4-yl)-5-(4-(pyridin-4-yl)piperazine-1-carbonyl)picolinamide]"
7,1 to 5,"CCOC(=O)C(c1ccccc1)N1CCC(NC(=O)c2ccc(C(=O)N3CCN(Cc4ccc(F)cc4)CC3)cn2)CC1 (centres unmarked) [Compound 98, ethyl 2-(4-(5-(4-(4-fluorobenzyl)piperazine-1-carbonyl)picolinamido)piperidin-1-yl)-2-phenylacetate]"
8,5 to 10,"N#Cc1ccc(CC2CCC(NC(=O)c3cccc(C(=O)N4CCN(Cc5ccc(F)cc5)CC4)n3)CC2)cc1 (centres unmarked) [Compound 99, N-(4-(4-cyanobenzyl)cyclohexyl)-6-(4-(4-fluorobenzyl)piperazine-1-carbonyl)picolinamide]"
9,< 0.5,"COc1ccc(CN2CCN(C(=O)c3ccc(C(=O)NC4CCN(Cc5ccc(C#N)cc5)CC4)nc3)CC2)cc1 [Compound 101, N-(1-(4-cyanobenzyl)piperidin-4-yl)-5-(4-(4-methoxybenzyl)piperazine-1-carbonyl)picolinamide]"
10,5 to 10,"O=C(Nc1cccc(-c2ccccc2)c1)c1ccc(C(=O)NC2CCN(Cc3ccccc3)CC2)nc1 [Compound 106, N2-(1-benzylpiperidin-4-yl)-N5-(biphenyl-3-yl)pyridine-2,5-dicarboxamide]"
11,5 to 10,"N#Cc1ccc(CN2CCC(NC(=O)c3ccc(Nc4ccc(-c5ccccc5)cc4)cn3)CC2)cc1 [Compound 109, 5-(biphenyl-4-ylamino)-N-(1-(4-cyanobenzyl)piperidin-4-yl)picolinamide]"
12,5 to 10,"O=C(NCc1ccccc1)c1ccc(C(=O)N2CCN(Cc3ccc(F)cc3)CC2)cn1 [Compound 115, N-benzyl-5-(4-(4-fluorobenzyl)piperazine-1-carbonyl)picolinamide]"
13,1 to 5,"N#Cc1ccc(-c2ccc(Nc3ccc(C(=O)NC4CCN(Cc5ccccc5)CC4)nc3)cc2)cc1 [Compound 119, N-(1-benzylpiperidin-4-yl)-5-(4′-cyanobiphenyl-4-ylamino)picolinamide]"
14,1 to 5,"N#Cc1ccc(CN2CCC(NC(=O)c3ccc(-c4cn(Cc5ccccc5)nn4)cn3)CC2)cc1 [Compound 121, 5-(1-benzyl-1H-1,2,3-triazol-4-yl)-N-(1-(4-cyanobenzyl)piperidin-4-yl)picolinamide]"

# — patent publication US9663496B2, “AMPK-activating heterocyclic compounds and methods for using the same” (Rigel Pharmaceuticals, Inc., priority 2010, dated 2017)
